# Patent US11173162B2, “Bicyclic heterocycles as FGFR4 inhibitors” (Incyte Corporation, priority 2015, dated 2021)
# System: FGFR3 enzyme
# Experiment: FGFR Enzymatic Assay (FRET peptide phosphorylation), FGFR3
# Assay type: biochemical
# Conditions: IC50 ratio showing FGFR3 selectivity; Table 2A, pre-incubated for 4 hours
# Procedure: The inhibitor potency of the exemplified compounds was measured in an enzyme assay that measures peptide phosphorylation using FRET measurements to detect product formation. Inhibitors were serially diluted in DMSO and a volume of 0.5 μL was transferred to the wells of a 384-well plate.
# GraphPad prism3 was used to analyze the data.
FGFR1/FGFR3,FGFR4/FGFR3,SMILES
>10,>10,"COc1cc(OC)c(F)c(N2Cc3cnc(-c4cn(C)nc4C)cc3N(c3ccnnc3)C2=O)c1F [Example 57, 3-(2,6-difluoro-3,5-dimethoxyphenyl)-7-(1,3-dimethyl-1H-pyrazol-4-yl)-1-(pyridazin-4-yl)-3,4-dihydropyrido[4,3-d]pyrimidin-2(1H)-one]"
>10,>10,"COc1cc(CN2C(=O)N(c3c(F)c(OC)cc(OC)c3F)Cc3cnc(-c4cn(C)nc4C)cc32)ccn1 [Example 58, 3-(2,6-difluoro-3,5-dimethoxyphenyl)-7-(1,3-dimethyl-1H-pyrazol-4-yl)-1-((2-methoxypyridin-4-yl)methyl)-3,4-dihydropyrido[4,3-d]pyrimidin-2(1H)-one]"
>10,>10,"COc1ccc(CN2C(=O)N(c3c(F)c(OC)cc(OC)c3F)Cc3cnc(-c4cn(C)nc4C)cc32)cn1 [Example 59, 3-(2,6-difluoro-3,5-dimethoxyphenyl)-7-(1,3-dimethyl-1H-pyrazol-4-yl)-1-((6-methoxypyridin-3-yl)methyl)-3,4-dihydropyrido[4,3-d]pyrimidin-2(1H)-one]"
>10,>5,"COc1cc(OC)c(F)c(N2Cc3cnc(-c4cn(C)nc4C)cc3N(c3cncnc3)C2=O)c1F [Example 61, 3-(2,6-difluoro-3,5-dimethoxyphenyl)-7-(1,3-dimethyl-1H-pyrazol-4-yl)-1-(pyrimidin-5-yl)-3,4-dihydropyrido[4,3-d]pyrimidin-2(1H)-one]"
>10,>5,"CNC(=O)c1ccc(CN2C(=O)N(c3c(F)c(OC)cc(OC)c3F)Cc3cnc(-c4cn(C)nc4C)cc32)cc1 [Example 62, 4-((3-(2,6-difluoro-3,5-dimethoxyphenyl)-7-(1,3-dimethyl-1H-pyrazol-4-yl)-2-oxo-3,4-dihydropyrido[4,3-d]pyrimidin-1(2H)-yl)methyl)-N-methylbenzamide]"
>10,>5,"COc1cc(OC)c(F)c(N2Cc3cnc(-c4cn(C)nc4C)cc3N(c3ccc4ccncc4c3)C2=O)c1F [Example 63, 3-(2,6-difluoro-3,5-dimethoxyphenyl)-7-(1,3-dimethyl-1H-pyrazol-4-yl)-1-(isoquinolin-7-yl)-3,4-dihydropyrido[4,3-d]pyrimidin-2(1H)-one]"
>10,>10,"CCc1cc(CN2C(=O)N(c3c(F)c(OC)cc(OC)c3F)Cc3cnc(-c4cn(C)nc4C)cc32)no1 [Example 64, 3-(2,6-difluoro-3,5-dimethoxyphenyl)-7-(1,3-dimethyl-1H-pyrazol-4-yl)-1-((5-ethylisoxazol-3-yl)methyl)-3,4-dihydropyrido[4,3-d]pyrimidin-2(1H)-one]"
>5,>10,"COc1cc(OC)c(F)c(N2Cc3cnc(-c4cn(C)nc4C)cc3N(Cc3ccncn3)C2=O)c1F [Example 65, 3-(2,6-difluoro-3,5-dimethoxyphenyl)-7-(1,3-dimethyl-1H-pyrazol-4-yl)-1-(pyrimidin-4-ylmethyl)-3,4-dihydropyrido[4,3-d]pyrimidin-2(1H)-one]"
>5,>10,"CCc1nnc(CN2C(=O)N(c3c(F)c(OC)cc(OC)c3F)Cc3cnc(-c4cn(C)nc4C)cc32)o1 [Example 67, 3-(2,6-difluoro-3,5-dimethoxyphenyl)-7-(1,3-dimethyl-1H-pyrazol-4-yl)-1-((5-ethyl-1,3,4-oxadiazol-2-yl)methyl)-3,4-dihydropyrido[4,3-d]pyrimidin-2(1H)-one]"
>5,>5,"COc1cc(OC)c(F)c(N2Cc3cnc(-c4cn(C)nc4C)cc3N(Cc3ccnc(C)c3)C2=O)c1F [Example 68, 3-(2,6-difluoro-3,5-dimethoxyphenyl)-7-(1,3-dimethyl-1H-pyrazol-4-yl)-1-((2-methylpyridin-4-yl)methyl)-3,4-dihydropyrido[4,3-d]pyrimidin-2(1H)-one]"
>5,>5,"COc1cc(OC)c(F)c(N2Cc3cnc(-c4cn(C)nc4C)cc3N(Cc3ccncc3)C2=O)c1F [Example 69, 3-(2,6-difluoro-3,5-dimethoxyphenyl)-7-(1,3-dimethyl-1H-pyrazol-4-yl)-1-(pyridin-4-ylmethyl)-3,4-dihydropyrido[4,3-d]pyrimidin-2(1H)-one]"

# More lines, now with the values behind:
SMILES,FGFR1/FGFR3,FGFR4/FGFR3
"CCN1C(=O)N(c2c(F)c(OC)cc(OC)c2F)Cc2cnc(-c3cn(CC(=O)N4CCOCC4)nc3C)cc21 [Example 51, 3-(2,6-difluoro-3,5-dimethoxyphenyl)-1-ethyl-7-(3-methyl-1-(2-morpholino-2-oxoethyl)-1H-pyrazol-4-yl)-3,4-dihydropyrido[4,3-d]pyrimidin-2(1H)-one]",>1,>1
"COc1cc(OC)c(F)c(N2Cc3cnc(-c4cn(CCN5CCOCC5)nc4C)cc3C3(CC3)C2=O)c1F [Example 52, 2′-(2,6-difluoro-3,5-dimethoxyphenyl)-6′-(3-methyl-1-(2-morpholinoethyl)-1H-pyrazol-4-yl)-1′H-spiro[cyclopropane-1,4′-[2,7]naphthyridin]-3′(2′H)-one]",>10,>1
"CCn1cnc(-c2cc3c(cn2)CN(c2c(F)c(OC)cc(OC)c2F)C(=O)C32CC2)c1 [Example 53, 2′-(2,6-difluoro-3,5-dimethoxyphenyl)-6′-(1-ethyl-1H-imidazol-4-yl)-1′H-spiro[cyclopropane-1,4′-[2,7]naphthyridin]-3′(2′H)-one]",>5,>5
"COc1cc(OC)c(F)c(N2Cc3cnc(-c4cn(C5CCS(=O)(=O)C5)nc4C)cc3C3(CC3)C2=O)c1F (stereo not drawn) [Example 54, 2′-(2,6-difluoro-3,5-dimethoxyphenyl)-6′-[1-(1,1-dioxidotetrahydro-3-thienyl)-3-methyl-1H-pyrazol-4-yl]-1′,2′-dihydro-3′H-spiro[cyclopropane-1,4′-[2,7]naphthyridin]-3′-one]",>5,>1
"COc1cc(OC)c(F)c(N2Cc3cnc(-c4cnn(C5(CC#N)CN(C(C)=O)C5)c4)cc3C3(CC3)C2=O)c1F [Example 56, 2-(1-acetyl-3-(4-(2′-(2,6-difluoro-3,5-dimethoxyphenyl)-3′-oxo-2′,3′-dihydro-1′H-spiro[cyclopropane-1,4′-[2,7]naphthyridine]-6′-yl)-1H-pyrazol-1-yl)azetidin-3-yl)acetonitrile]",>5,>1
"COc1cc(OC)c(F)c(N2Cc3cnc(-c4cn(C)nc4C)cc3N(c3ccc(F)c(C#N)c3)C2=O)c1F [Example 66, 5-(3-(2,6-difluoro-3,5-dimethoxyphenyl)-7-(1,3-dimethyl-1H-pyrazol-4-yl)-2-oxo-3,4-dihydropyrido[4,3-d]pyrimidin-1(2H)-yl)-2-fluorobenzonitrile]",>5,>5
"COc1cc(OC)c(F)c(N2Cc3cnc(-c4cn(C)nc4C)cc3N(c3cnccn3)C2=O)c1F [Example 70, 3-(2,6-difluoro-3,5-dimethoxyphenyl)-7-(1,3-dimethyl-1H-pyrazol-4-yl)-1-(pyrazin-2-yl)-3,4-dihydropyrido[4,3-d]pyrimidin-2(1H)-one]",>5,>5
